Laboratory results: patent publication US6136835A (priority 1999, dated 2000)
Values joined by “and” are separate entries in the source; they are usually repeats but may differ in a detail not shown here. Identical values can stand only once. Like-named read-outs stand apart in the source and are kept apart here.

How the values were obtained:
[1] = tested on: human influenza virus, strain AT2/Taiwan/1/64; assay: Anti viral evaluation with human influenza virus in mice; type: in vivo; details: 21 days observation, virus dose ~90% lethality
[2] = tested on: chronic hepatitis C; details: interferon with or without ribavarin; cited from earlier work
[3] = tested on: murine melanoma (B16); details: for % Increase in survival time relative to control (100%) / Survivors in cancer model: mouse, in vivo
Experimental: In an in vivo mouse model for murine melanoma (B16) fluconazole was tested alone and in combination with adriamycin (doxorubicin) at various doses.

[4] = tested on: ovarian cancer; assay: In Vitro Human Tumor Colony Forming Units Test, ovarian; type: cell-based; details: 50.0 μg/ml, continuous exposure
Experimental: (§1) Solid tumors removed from patients are minced into 2 to 5 mm fragments and immediately placed in McCoy's Medium 5A plus 10% heat inactivated newborn calf serum lus 1% penicillin/streptomycin. Within 4 hours, these solid tumors are mechanically disassociated with scissors, forced through No. 100 stainless steel mesh, through 25 gauge needles, and then washed with McCoys medium as described above. Ascitic, pleural, pericardial fluids and bone marrow are obtained by standard techniques. The fluid or marrow is placed in sterile containers containing 10 units of preservative free heparin per ml. of malignant fluid or marrow. After centrifugation at 150× g for 10 minutes, the cells are harvested and washed with McCoy's medium plus 10% heat inactivated calf serum. The viability of cell suspensions is determined on a hemocytometer with trypan blue.
(§2) Cells to be cloned are suspended in 0.3% agar in enriched CMRL1066 supplemented with 15% heat inactivated horse serum, penicillin (100 units/ml), streptomycin ([…]), glutamine (2 mM ), insulin (3 units/ml), asparagine (0.6 mg/ml), and HEPES buffer (2 mM ). For the continuous exposure test each compound is added to the above mixture. […] If there is <30% cells in the positive control when compared to the untreated control, the test is evaluated. […]

[5] = tested on: influenza; assay: in vitro model for influenza
[6] = tested on: Rhinovirus; details: in vivo Rhinovirus
[7] = tested on: lung, non-small cell cancer; assay: In Vitro Human Tumor Colony Forming Units Test, lung, non-small cell; type: cell-based; details: 50.0 μg/ml, continuous exposure
Experimental: as §1, §2

[8] = tested on: solid tumors removed from patients; assay: In Vitro Human Tumor Colony Forming Units Test; type: cell-based; details: for effective against tumors (number of tumors): continuous exposure or single dose experiment
Experimental: as §1
Cells to be cloned are suspended in 0.3% agar in enriched CMRL1066 supplemented with 15% heat inactivated horse serum, penicillin (100 units/ml), streptomycin ([…]), glutamine (2 mM ), insulin (3 units/ml), asparagine (0.6 mg/ml), and HEPES buffer (2 mM ). For the continuous exposure test each compound is added to the above mixture. Cells are placed in 35 mm petri dishes in a top layer of agar over an underlayer of agar to prevent growth of fibroblasts. Three plates are prepared for each data point. The plates are placed in a 37° C. incubator, and are removed on day 14 for counting of the number of colonies in each plate. The number of colonies (defined as 50 cells) formed in the 3 compound treated plates is compared to the number of colonies formed in the 3 control plates, and the percent colonies surviving at the concentration of compound can be tabulated. Three positive control plates are used to determine survival rate. Orthosodium vanadate at 200 μg/ml is used as the positive control. If there is <30% cells in the positive control when compared to the untreated control, the test is evaluated. […]

## NC12CC3CC(CC(C3)C1)C2 [Amantadine]
[1]; 75 mg/kg oral
  Percent Mortality: 0%

## interferon
[2]
  response rate: about 25%

## OC(Cn1cncn1)(Cn1cncn1)c1ccc(F)cc1F [Fluconazole, 2-(2,4-difluorophenyl)-1,3-bis(1H-1,2,4-triazol-1-yl)propan-2-ol]
[3]; fluconazole 175 mg/kg, adriamycin 0
  Toxic deaths: 0
[3]; fluconazole 350 mg/kg, adriamycin 0
  Toxic deaths: 0
[3]; fluconazole 700 mg/kg, adriamycin 0
  Toxic deaths: 0
[3]
  % Increase in survival time relative to control (100%): 120% and 116% and 117%
  Survivors in cancer model: 0
[4]
  effectiveness against ovarian cancer: effective
[1]; 350 mg/kg oral
  Percent Mortality: 0%
[1]; 700 mg/kg oral
  Percent Mortality: 30%
[5]
  activity in an in vitro model for influenza: did not show activity
[6]
  activity in screening test: Nor was it active
[7]
  effectiveness against lung, non-small cell cancer: effective
[8]; 0.5 μg/ml
  effective against tumors (number of tumors): 0/3
[8]; 5.0 μg/ml
  effective against tumors (number of tumors): 0/13
[8]; 50.0 μg/ml, continuous exposure
  tumors with <50% survival (over all): 4/13

## COc1cccc2c1C(=O)c1c(O)c3c(c(O)c1C2=O)C[C@@](O)(C(=O)CO)C[C@@H]3O[C@H]1C[C@H](N)[C@H](O)[C@H](C)O1 [Adriamycin]
[3]; fluconazole 0, adriamycin 2 mg/kg
  Toxic deaths: 0
[3]; fluconazole 0, adriamycin 3 mg/kg
  Toxic deaths: 0
[3]; fluconazole 0, adriamycin 4 mg/kg
  Toxic deaths: 0
[3]
  % Increase in survival time relative to control (100%): cures occurred
  Survivors in cancer model: 6/10 and 8/10 and 10/10
